Test results as given in PubChem BioAssay (NCI).
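Method: 48-hour compound exposure of cells in 96-well plates, five concentrations, linear interpolation of endpoints. Here, GI50 denotes the concentration required for 50% inhibition of growth. TGI: total growth inhibition.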

Assays:
Test in all cases: NCI tumour cell line growth inhibition, 48 h
[1] = system: 786-0 renal
[2] = system: A498 renal
[3] = system: A549 NSCLC
[4] = system: ACHN renal
[5] = system: BT-549 breast
[6] = system: CAKI-1 renal
[7] = system: CCRF-CEM leukemia
[8] = system: COLO 205 colon
[9] = system: DU-145 prostate
[10] = system: EKVX NSCLC
[11] = system: HCC-2998 colon
[12] = system: HCT-116 colon
[13] = system: HCT-15 colon
[14] = system: HL-60(TB) leukemia
[15] = system: HOP-62 NSCLC
[16] = system: HOP-92 NSCLC
[17] = system: HS 578T breast
[18] = system: HT29 colon
[19] = system: IGROV1 ovarian
[20] = system: K-562 leukemia
[21] = system: KM12 colon
[22] = system: LOX IMVI melanoma
[23] = system: M14 melanoma
[24] = system: MALME-3M melanoma
[25] = system: MCF7 breast
[26] = system: MDA-MB-231 breast
[27] = system: MDA-MB-435
[28] = system: MOLT-4 leukemia
[29] = system: NCI-H226 lung
[30] = system: NCI-H23 lung
[31] = system: NCI-H460 lung
[32] = system: NCI-H522 lung
[33] = system: NCI/ADR-RES ovarian
[34] = system: OVCAR-3 ovarian
[35] = system: OVCAR-4 ovarian
[36] = system: OVCAR-5 ovarian
[37] = system: OVCAR-8 ovarian
[38] = system: PC-3 prostate
[39] = system: RPMI-8226 leukemia
[40] = system: RXF 393 renal
[41] = system: SF-268 CNS
[42] = system: SF-295 CNS
[43] = system: SK-MEL-2 melanoma
[44] = system: SK-MEL-28 melanoma
[45] = system: SK-MEL-5 melanoma
[46] = system: SK-OV-3 ovarian
[47] = system: SN12C renal
[48] = system: SNB-19 CNS
[49] = system: SNB-75 CNS
[50] = system: SR leukemia
[51] = system: SW-620 colon
[52] = system: T-47D breast
[53] = system: TK-10 renal
[54] = system: U251 CNS
[55] = system: UACC-257 melanoma
[56] = system: UACC-62 melanoma
[57] = system: UO-31 renal
[58] = system: SF-539 CNS

SMILES: Clc1ccc2c(c1)N(CCCN1CCCC1)c1ccccc1S2
- GI50 [1]: 5.38 µM
- TGI [1]: 19.3 µM
- GI50 [2]: 2.2 µM
- TGI [2]: 10.2 µM
- GI50 [3]: 11 µM
- TGI [3]: 24.5 µM
- GI50 [4]: 4.86 µM
- TGI [4]: 17.9 µM
- GI50 [5]: 11.8 µM
- TGI [5]: 24.4 µM
- GI50 [6]: 11 µM
- TGI [6]: 22.9 µM
- GI50 [7]: 3.93 µM
- TGI [7]: 14.2 µM
- GI50 [8]: 2.5 µM
- TGI [8]: 7.34 µM
- GI50 [9]: 8.61 µM
- TGI [9]: 20.9 µM
- GI50 [10]: 8 µM
- TGI [10]: 21.6 µM
- GI50 [11]: 4.41 µM
- TGI [11]: 15.5 µM
- GI50 [12]: 3.19 µM
- TGI [12]: 12.1 µM
- GI50 [13]: 3.72 µM
- TGI [13]: 13.5 µM
- GI50 [14]: 4.34 µM
- TGI [14]: 16.8 µM
- GI50 [15]: 12.6 µM
- TGI [15]: 26.6 µM
- GI50 [16]: 3.94 µM
- TGI [16]: 16.2 µM
- GI50 [17]: 4.92 µM
- TGI [17]: 30.8 µM
- GI50 [18]: 3.71 µM
- TGI [18]: 12.9 µM
- GI50 [19]: 7.84 µM
- TGI [19]: 23.3 µM
- GI50 [20]: 2.77 µM
- TGI [20]: 7.61 µM
- GI50 [21]: 5.14 µM
- TGI [21]: 18.7 µM
- GI50 [22]: 2.5 µM
- TGI [22]: 7.14 µM
- GI50 [23]: 1.92 µM
- TGI [23]: 3.97 µM
- GI50 [24]: 3.98 µM
- TGI [24]: 18.5 µM
- GI50 [25]: 3.22 µM
- TGI [25]: 13.6 µM
- GI50 [26]: 3.42 µM
- TGI [26]: 12.8 µM
- GI50 [27]: 1.92 µM
- TGI [27]: 4.02 µM
- GI50 [28]: 4.09 µM
- TGI [28]: 15.9 µM
- GI50 [29]: 19.4 µM
- TGI [29]: 48.3 µM
- GI50 [30]: 10.2 µM
- TGI [30]: 24 µM
- GI50 [31]: 15.2 µM
- TGI [31]: 35.4 µM
- GI50 [32]: 2.23 µM
- TGI [32]: 7.11 µM
- GI50 [33]: 5.34 µM
- TGI [33]: 18.8 µM
- GI50 [34]: 10.4 µM
- TGI [34]: 22.9 µM
- GI50 [35]: 7.82 µM
- TGI [35]: 21.2 µM
- GI50 [36]: 12.7 µM
- TGI [36]: 28.3 µM
- GI50 [37]: 9.64 µM
- TGI [37]: 23.4 µM
- GI50 [38]: 4.38 µM
- TGI [38]: 16.1 µM
- GI50 [39]: 7.4 µM
- TGI [39]: 24.3 µM
- GI50 [40]: 3.47 µM
- TGI [40]: 12.1 µM
- GI50 [41]: 5.75 µM
- TGI [41]: 20.7 µM
- GI50 [42]: 6.83 µM
- TGI [42]: 21.6 µM
- GI50 [43]: 10.8 µM
- TGI [43]: 23.9 µM
- GI50 [44]: 6.6 µM
- TGI [44]: 21.4 µM
- GI50 [45]: 1.83 µM
- TGI [45]: 3.32 µM
- GI50 [46]: 6.22 µM
- TGI [46]: 19 µM
- GI50 [47]: 11.7 µM
- TGI [47]: 27.3 µM
- GI50 [48]: 9.63 µM
- TGI [48]: 28.1 µM
- GI50 [49]: 3.4 µM
- TGI [49]: 16.4 µM
- GI50 [50]: 2.01 µM
- TGI [50]: 4.91 µM
- GI50 [51]: 10.7 µM
- TGI [51]: 25.8 µM
- GI50 [52]: 12.4 µM
- TGI [52]: 28.5 µM
- GI50 [53]: 13 µM
- TGI [53]: 26 µM
- GI50 [54]: 6.96 µM
- TGI [54]: 20.5 µM
- GI50 [55]: 11.4 µM
- TGI [55]: 23.8 µM
- GI50 [56]: 10.2 µM
- TGI [56]: 25.2 µM
- GI50 [57]: 6.61 µM
- TGI [57]: 20.7 µM

SMILES: Cc1cc(O)ccc1C1=NN(c2ccc(S(C)(=O)=O)cc2)C(=O)CC1
- GI50 [1]: 92.5 µM
- TGI [1]: > 100 µM
- GI50 [2]: 2.78 µM
- TGI [2]: 45.4 µM
- GI50 [3]: 6.2 µM
- TGI [3]: > 100 µM
- GI50 [4]: 37.8 µM
- TGI [4]: > 100 µM
- GI50 [5]: 4.97 µM
- TGI [5]: > 100 µM
- GI50 [6]: 2.79 µM
- TGI [6]: 16.5 µM
- GI50 [7]: 9.09 µM
- TGI [7]: > 100 µM
- GI50 [8]: 6.62 µM
- TGI [8]: 74.4 µM
- GI50 [9]: 24.7 µM
- TGI [9]: > 100 µM
- GI50 [10]: 57.9 µM
- TGI [10]: > 100 µM
- GI50 [11]: 46.7 µM
- TGI [11]: > 100 µM
- GI50 [12]: 3.78 µM
- TGI [12]: > 100 µM
- GI50 [13]: 7.91 µM
- TGI [13]: > 100 µM
- GI50 [14]: 3.52 µM
- TGI [14]: 48.4 µM
- GI50 [15]: 9.07 µM
- TGI [15]: > 100 µM
- GI50 [16]: 6.49 µM
- TGI [16]: > 100 µM
- GI50 [17]: 4.15 µM
- TGI [17]: > 100 µM
- GI50 [18]: 3.7 µM
- TGI [18]: 32.3 µM
- GI50 [19]: 7.13 µM
- TGI [19]: > 100 µM
- GI50 [20]: 3.74 µM
- TGI [20]: > 100 µM
- GI50 [21]: 4.22 µM
- TGI [21]: > 100 µM
- GI50 [22]: 7.25 µM
- TGI [22]: > 100 µM
- GI50 [23]: 3.85 µM
- TGI [23]: > 100 µM
- GI50 [24]: 5.37 µM
- TGI [24]: > 100 µM
- GI50 [25]: 20.7 µM
- TGI [25]: > 100 µM
- GI50 [26]: 17.1 µM
- TGI [26]: > 100 µM
- GI50 [27]: 1.28 µM
- TGI [27]: 5.83 µM
- GI50 [28]: 14.3 µM
- TGI [28]: > 100 µM
- GI50 [29]: > 100 µM
- TGI [29]: > 100 µM
- GI50 [30]: 38.5 µM
- TGI [30]: > 100 µM
- GI50 [31]: 3.87 µM
- TGI [31]: > 100 µM
- GI50 [32]: 2.53 µM
- TGI [32]: 8.6 µM
- GI50 [33]: 3.26 µM
- TGI [33]: > 100 µM
- GI50 [34]: 3.41 µM
- TGI [34]: 9.44 µM
- GI50 [35]: 76.9 µM
- TGI [35]: > 100 µM
- GI50 [36]: 53.8 µM
- TGI [36]: > 100 µM
- GI50 [37]: 12.3 µM
- TGI [37]: > 100 µM
- GI50 [38]: 14.8 µM
- TGI [38]: > 100 µM
- GI50 [39]: 25.6 µM
- TGI [39]: > 100 µM
- GI50 [40]: 12.8 µM
- TGI [40]: > 100 µM
- GI50 [41]: 40 µM
- TGI [41]: > 100 µM
- GI50 [42]: 2.87 µM
- TGI [42]: 12.4 µM
- GI50 [58]: 13.2 µM
- TGI [58]: > 100 µM
- GI50 [43]: 3.48 µM
- TGI [43]: 32.8 µM
- GI50 [44]: 9.55 µM
- TGI [44]: > 100 µM
- GI50 [45]: 5.49 µM
- TGI [45]: > 100 µM
- GI50 [46]: 9.77 µM
- TGI [46]: > 100 µM
- GI50 [47]: 7.18 µM
- TGI [47]: > 100 µM
- GI50 [48]: 50.4 µM
- TGI [48]: > 100 µM
- GI50 [49]: 5.53 µM
- TGI [49]: 75.2 µM
- GI50 [50]: 3.39 µM
- TGI [50]: > 100 µM
- GI50 [51]: 3.32 µM
- TGI [51]: > 100 µM
- GI50 [52]: 20.2 µM
- TGI [52]: > 100 µM
- GI50 [53]: 80.5 µM
- TGI [53]: > 100 µM
- GI50 [54]: 4.3 µM
- TGI [54]: > 100 µM
- GI50 [55]: 5.65 µM
- TGI [55]: > 100 µM
- GI50 [56]: 4 µM
- TGI [56]: > 100 µM
- GI50 [57]: 14.8 µM
- TGI [57]: > 100 µM
